As a reminder, the solubility is the concentration that dissolves in the medium under given conditions.

The record followed here is patent US12668610B2, “Compounds for drug delivery across blood-brain barrier” (University of Houston System, priority 2020, dated 2026).

Numbered stars: 1 amine (or outer) side, 2 acyl side, 3 side chain; on linkers, the order of the positions; unused ones are H or OH. Square brackets hold non-standard residues; d marks the D form. Peptide text beside a SMILES is read from it. N((CH2)3OiPr)Gly = CC(C)OCCCNCC(=O)O; X1 = CC(c1ccccc1)N(CC(=O)[*:2])[*:1]; Nleu = CC(C)CNCC(=O)O; Nlys = NCCCCNCC(=O)O; Nme = COCCNCC(=O)O

One series deals with T1, transferrin receptor (Homo sapiens, UniProt P02786).
T1 construct: Cell lysates from HeLa cells with transferrin receptor expression or transferrin receptor knockdown were extracted using RIPA buffer; endogenous in cells; host or cells: HeLa (ATCC)
T1 sequence (P02786 whole entry): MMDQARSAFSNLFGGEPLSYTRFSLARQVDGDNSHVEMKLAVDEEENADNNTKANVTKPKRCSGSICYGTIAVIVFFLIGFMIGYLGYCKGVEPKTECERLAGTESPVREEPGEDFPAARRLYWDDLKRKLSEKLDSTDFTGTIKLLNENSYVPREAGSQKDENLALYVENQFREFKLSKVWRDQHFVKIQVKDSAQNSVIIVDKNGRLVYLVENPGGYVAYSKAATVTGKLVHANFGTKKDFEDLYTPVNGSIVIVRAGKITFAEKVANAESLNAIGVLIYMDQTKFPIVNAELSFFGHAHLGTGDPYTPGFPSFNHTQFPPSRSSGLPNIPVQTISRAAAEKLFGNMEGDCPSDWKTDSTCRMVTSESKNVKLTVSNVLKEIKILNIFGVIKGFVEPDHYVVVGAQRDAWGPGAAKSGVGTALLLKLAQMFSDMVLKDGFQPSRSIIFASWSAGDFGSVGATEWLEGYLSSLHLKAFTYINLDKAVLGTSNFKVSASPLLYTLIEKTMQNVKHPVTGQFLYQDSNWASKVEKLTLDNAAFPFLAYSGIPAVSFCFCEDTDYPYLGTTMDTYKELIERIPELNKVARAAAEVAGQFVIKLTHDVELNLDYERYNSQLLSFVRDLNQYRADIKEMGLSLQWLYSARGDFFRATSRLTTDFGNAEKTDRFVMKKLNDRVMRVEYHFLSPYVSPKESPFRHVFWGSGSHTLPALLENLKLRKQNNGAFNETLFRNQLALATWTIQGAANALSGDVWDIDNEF
In words: In vitro pull-down assay with compound-conjugated beads and western blot. The series is classed as binding. The settings on record: lysates of transferrin receptor positive or negative HeLa cells, compound-conjugated beads, 4° C. overnight, western blot anti-hTfR. On the procedure: The binding of three exemplary compounds to the transferrin receptor was confirmed in a pull-down assay. Cell lysates from transferrin receptor positive or negative HeLa cells were extracted using RIPA buffer, and subsequently incubated with TRBP3, TRBP5, or TRBP6 conjugated beads at 4° C. overnight. The beads were then washed with RIPA buffer for 3 times, and the binding proteins were eluted with 1% SDS. The yielded lysates were then applied onto 10% SDS-PAGE gel and subjected to western blotting analysis with antibody against transferrin receptor.
Cell lysates from HeLa cells with transferrin receptor expression or transferrin receptor knockdown were extracted using RIPA buffer (Alfa Aesar) supplemented with protease inhibitors (Roche), and subsequently incubated with TRBP6, TRBP3, and TRBP5 conjugated beads at 4° C. overnight. The beads were then washed with RIPA buffer for 3 times, and the binding proteins were eluted with 1% SDS at 95° C. for 5 mins. The yielded lysates were then mixed with 4× Laemmli Sample Buffer (loading buffer) (Bio-Rad). […]
Cells were lysed in RIPA buffer (1% NP-40, 0.5% sodium deoxycholate, 0.1% SDS in PBS). […] Protein concentration was determined by Bio-Rad DC protein assay (Bio-Rad). […] Signals of targeted proteins were detected by the Immun-Star HRP peroxide Luminol/Enhancer (Bio-Rad) and recorded on ChemiDoc Touch Imaging System (Bio-Rad). […]
A general note: Immunoblotting shows a protein as a band on a membrane.

In series [1] the test system is transferrin receptor positive HeLa cells. In words: Validation of on-bead two-color binding with resynthesized compound on TentaGel beads. The series is classed as cell-based, human. The settings on record: 1.0 hour at room temperature, fluorescence microscope. On the procedure: The on-bead two-color combinatorial cell-screening was validated by resynthesizing the compounds on tentagel beads and incubating them with transferrin receptor positive HeLa cells and transferrin receptor negative Hela cells separately as well as a mixture of these cells. The beads specifically bound with the transferrin receptor positive HeLa cells. Results are shown in FIG. 3, with the cells shown on the left column and the beads containing TRBP6 after incubation with the cells shown in the right column.
Nearly 50,000 peptoid library beads were washed two times in DMEM medium containing 10% FBS (media) and then incubated in 1.0 ml (DMEM+10% FBS) for 1.0 hour in a polypropylene tube. Transferrin receptor positive HeLa cells and transferrin receptor negative HeLa cells were removed from culture plates with GIBCO enzyme free cell dissociation buffer 2.0 ml per plate for 20 minutes at 37° C. Cells were washed and suspended in DMEM+10% FBS media. Cells were counted and distributed in 1.5 ml microcentrifuge tubes with 1.0×10^6 cells in 1.0 ml of media. Then the cell labeling procedure was conducted as follows: 1.0 μl each of Qtracker reagent A and B were mixed in a 1.5 ml microcentrifuged tubes and incubated for 5.0 minutes at room temperature. […] Labeled cells were visualized with long-pass filter of BX-51 fluorescence microscope (Olympus, PA) with a color camera. […]

Series [2] can be described thus: In vivo biodistribution study of Cy5.5-labeled peptoids in CD-1 mice (IVIS imaging). On the procedure: The activity of these compounds to deliver Cy5.5 fluorescent dye into the brains of mice was investigated. […] The Cy5.5 labeled peptoids or Cy5.5-Ang peptide were injected intravenously to CD-1 mice (25 nmol/mouse, n=4 per compound) and imaged using IVIS imager. The mice were sacrificed at 30 minutes, the heart was perfused with 10 mL of PBS, blood and organs were collected for ex vivo imaging.
Biodistribution of Cy5.5-labeled peptoids and control Cy5.5-Ang was performed on healthy female CD-1 mice (6-8 weeks old, n=4 per group). Fluorescently labeled peptoids and Cy5.5-Ang were prepared in 100 μl saline (25 nmol of Cy5.5-TRBP in 100 μl saline per mouse) were injected intravenously via tail vein into mice. The whole body imaging of fluorescence signal was measured at 5, 15 and 30 min using the IVIS Spectrum in vivo imaging system (PerkinElmer). At 30 min, mice were euthanized and brain was perfused with 10 mL of 10% heparinized PBS at […] flow rate via left ventricle of mice. A small incision to the right atrium was made using iris scissors before perfusion. After brain perfusion, the vital organs (brain, heart, lung, liver, spleen also blood and plasma) were collected for ex vivo imaging. The fluorescence intensity was measured at wavelength with an excitation of 660 nm and maximum emission at 710 nm. The organ region of interest (ROI) was measured and analyzed using Living image software. Data of the experiments were expressed as mean±SD and analyzed by One-way ANOVA with Dunnett's multiple comparison test. The statistical analysis was done in Graphpad Prism (Graphpad Inc., version 7.04), the results were considered statistically significant if p<0.05.

Series [3] is described as follows: Solubility in water by titration. The format is physicochemical. The settings on record: deionised water; DI water. On the procedure: Solubility of TRBP-6 peptoid was determined by titration. Briefly, a precise amount (5 mg) of TRBP-6 was measured in a transparent 1.5 ml Eppendorf tube. DI water was added dropwise (˜5 μl/drop) into the tube until the solids were completely dissolved and the solution was clear. Solubility was calculated as the ratio of quantity of peptoid and the total volume of DI water. […] The solubility of TRBP6 in water is shown below.

Series [4] can be described thus: Stability in PBS pH 7.4 (HPLC). The series is classed as physicochemical. The settings on record: 37° C., 350 μg/ml. On the procedure:
(§1) HPLC Analysis. RP-HPLC was conducted on an LC-20A liquid chromatographic system (Shimadzu, Japan). In detail, the HPLC system consisted of a Shimadzu LC-20AD solvent delivery pump, a SIL-20A auto-sampler, and a Shimadzu SPD-M20A UV/Vis detector. The TRBP-6 peptoid was analyzed using a Phenomenex® HPLC C18 column (250×4.6 mm, 5 μm) at room temperature. The mobile phase was composed of solvent A (0.1% TFA in water) and solvent B (0.1% TFA in acetonitrile, TFA: trifluoroacetic acid). An aliquot of 10 μl of TRBP-6 peptoid solution (350 μg/ml in ACN:H2O, 1:1) was injected into HPLC system. An isocratic method with flow rate of 1 ml/min was applied in 30% B for 15 min for TRBP-6. The detection wavelength was set to 220 nm. The data was acquired and processed with LabSolutions version 5.92. HPLC chromatograms for TRBP-6 are shown in FIG. 10, namely (A) PDA Chromatogram, and (B) PDA Spectrum. FIG. 10(A) is a RP-HPLC chromatogram of TRBP-6 (retention time tR=4.904 min) obtained by above HPLC method to illustrate the purity of the synthesized TRBP-6. FIG. 10(B) is a plot of UV absorbance spectrum of TRBP-6 obtained from injecting TRBP-6 into the HPLC column to show the wavelength of maximum UV absorbance of TRBP-6 (λmax=216 nm). Stability in PBS pH 7.4.
TRBP-6 peptoid was diluted with PBS pH 7.4 to 350 μg/ml. The solution was incubated in the water bath at 37° C. with gentle shaking. The aliquots (50 μl) were withdrawn from the TRBP-6 solution at different time intervals (0, 1, 3, 6, 9, 24 h). At each time point, 10 μl of solution was injected into HPLC for analysis. To examine the reproducibility, the experiments were carried out in triplicate.

The nature of series [5]: Stability in human plasma (HPLC). The settings on record: 37° C. The format is in vitro ADME. Here is the method: as §1
TRBP-6 peptoid solution with a concentration of 5 mg/ml in PBS was diluted to 1.4 mg/ml by human plasma. After incubation at 37° C. in human plasma for 0, 1, 3, 6, 9 and 24 h, 50 μl of the mixture was quenched with 150 μl of cold acetonitrile and centrifuged at […]×20 min. The supernatant (100 μl) was detected by HPLC. The assay was performed in triplicates.

Take `COCCN(CC(=O)NC(CCCCN)C(=O)NC(CCSC)C(N)=O)C(=O)CN(CC(C)C)C(=O)CN(C(=O)CN(CCCCN)C(=O)CN(CCCOC(C)C)C(=O)CNCCCCN)C(C)c1ccccc1` (stereo not shown) [TRBP6] (H-[Nlys][N((CH2)3OiPr)Gly][Nlys][X1][Nleu][Nme]KM-NH2; configuration not given here): the “binding to the transferrin receptor in pull-down assay” value at transferrin receptor was “confirmed”. The “binding of beads to transferrin receptor positive (red) vs negative (green) HeLa cells” value in series [1] is on record as “only showed binding with red cells but not with green cells”. The “efficacy of brain delivery compared with other compounds including Angiopep-2 (Ang) peptide” value in series [2] (25 nmol/mouse intravenously) is “much higher than other compounds”. Besides, the “delivery of Cy5.5 into the brain” value in series [2] (25 nmol/mouse intravenously, imaging 5, 15, 30 min and ex vivo after perfusion) is “effectively delivered Cy5.5 into the brain”. For the same molecule, the “efficiency in brain delivery compared with other compounds including Ang peptide” value in series [2] (30 minutes after injection, 25 nmol/mouse i.v.) is “superior efficiency than other compounds”. The molecule further displayed a solubility in series [3] greater than 496 mg/mL. Also, the “TRBP-6 amount remains (%) in PBS pH 7.4” value in series [4] (0 h) stood at 100.0 ± 2.4%; in series [4] (1 h), 98.9 ± 6.5%; in series [4] (3 h) it was 95.5 ± 3.3%; in series [4] (6 h) it was 94.6 ± 2.3%; in series [4] (9 h) it was 92.7 ± 0.2%; in series [4] (24 h) it was 91.3 ± 3.8%. Besides, the “TRBP-6 amount remains (%) in human plasma” value in series [5] (0 h, 1.4 mg/ml) is listed as 100.0 ± 1.2%. For the same molecule, the “stability (overall statement)” value in series [5] (PBS pH 7.4 and human plasma, up to 24 h) was “excellent stability”. For the same molecule, the remaining at 1 h, 1.4 mg/ml in series [5] (human, human plasma, 1 h, 1.4 mg/ml, read-out: TRBP-6 amount remains (%) in human plasma) amounted to 99.5 ± 3.5%. In addition, in series [5] (human, human plasma, 3 h, 1.4 mg/ml, read-out: TRBP-6 amount remains (%) in human plasma), the remaining at 3 h, 1.4 mg/ml amounted to 94 ± 2.1%. Moreover, in series [5] (human, human plasma, 6 h, 1.4 mg/ml, read-out: TRBP-6 amount remains (%) in human plasma), the remaining at 6 h, 1.4 mg/ml was determined as 93 ± 5.3%. Moreover, the remaining at 9 h, 1.4 mg/ml in series [5] (human, human plasma, 9 h, 1.4 mg/ml, read-out: TRBP-6 amount remains (%) in human plasma) was 92 ± 2.9%. In series [5] (human, human plasma, 24 h, 1.4 mg/ml, read-out: TRBP-6 amount remains (%) in human plasma), the remaining at 24 h, 1.4 mg/ml was 90.3 ± 4.7%.
